The results in this text go back to article PMC9151520 (Archives of Toxicology, 2022).

The term EC50 denotes the concentration needed to bring the measured effect to its halfway point.

Structures can show the parent of a compound that is named as a salt. Where two headings read alike, the source gives them in different places.

Experiment [1] deals with p53 signaling (p53RE-bla HCT-116 cells).
Experiment [2] has the same test system. The experiment in a line: cells. Format: cell-based.
For experiment [3] the test system is unchanged. As to the kind of experiment: cells. Conditions: Homo sapiens.
For experiment [4] the test system is unchanged. The source holds these as a separate data set.
[5] abbreviates: Homo sapiens, HCT-116, read-out: EC50, p53 activation, cherry pick confirmation.
Where [6] appears, read: Homo sapiens, HCT-116, read-out: EC50, p53 activation, primary screening.
Where [7] appears, read: Homo sapiens, HCT-116, read-out: Efficacy, p53 activation, cherry pick confirmation.
The mark [8] stands for this setting: HCT-116, read-out: EC50, p53 activation, primary screening.
Setting [9] is: HCT-116, read-out: p53 activation EC50, cherry pick confirmation.
The mark [10] stands for this setting: HCT-116, read-out: p53 activation efficacy, cherry pick confirmation.

With `O=c1[nH]cc(F)c(=O)[nH]1` [5-Fluorouracil], in experiment [1], the “EC50, p53 activation, cherry pick confirmation” value was “inactive” and the “Efficacy, p53 activation, cherry pick confirmation” value is “inactive”. Besides, the EC50 in experiment [2] (setting [5]) worked out at 21.2 µM. Besides, the EC50 in experiment [2] (setting [6]) amounted to 5.93 µM. Besides, the Emax in experiment [2] (setting [7]) amounted to 98.3%. Besides, the EC50 in experiment [3] (setting [8]) worked out at 3.79 µM. In experiment [4], the “EC50, p53 activation, cherry pick confirmation” value was “inactive”; the “EC50, p53 activation, primary screening” value is “inactive”; the “Efficacy, p53 activation, cherry pick confirmation” value was “inactive”; the “Efficacy, p53 activation, primary screening” value is “inactive”. Further, in the experiment with p53RE-bla HCT-116 cells, the “EC50, viability, cherry pick confirmation” value is “inactive”; the “EC50, viability, primary screening” value was “inactive”; the “Efficacy, viability, cherry pick confirmation” value was “inactive”; the “Efficacy, viability, primary screening” value is “inactive”.
As to `c1ccc2c(c1)c1cccc3ccc4cccc2c4c31` [Benzo(e)pyrene], in experiment [1], the “p53 activation EC50, cherry pick confirmation” value is “inactive” and the “p53 activation efficacy, cherry pick confirmation” value was “inactive”. In addition, in experiment [2], the “p53 activation EC50, cherry pick confirmation” value was “inactive” and the “p53 activation efficacy, cherry pick confirmation” value was “inactive”. Besides, the EC50 in experiment [2] (Homo sapiens, HCT-116, read-out: p53 activation EC50, primary screening) stood at 36.3 µM. The Emax in experiment [2] (Homo sapiens, HCT-116, read-out: p53 activation efficacy, primary screening) amounted to 104%. For the same compound, the EC50 in experiment [3] (HCT-116, read-out: p53 activation EC50, primary screening) is 20.1 µM. Further, the Emax in experiment [3] (HCT-116, read-out: p53 activation efficacy, primary screening) was 48.3%. Also, in experiment [4], the “p53 activation EC50, cherry pick confirmation” value is “inactive”; the “p53 activation EC50, primary screening” value is “inactive”; the “p53 activation efficacy, cherry pick confirmation” value was “inactive”; the “p53 activation efficacy, primary screening” value was “inactive”. Also, in the experiment on p53RE-bla HCT-116 cells, the “Viability EC50, cherry pick confirmation” value is “inactive”; the “Viability EC50, primary screening” value was “inactive”; the “Viability efficacy, cherry pick confirmation” value was “inactive”; the “Viability efficacy, primary screening” value is “inactive”.
On to `CCCCCCNC(=O)n1cc(F)c(=O)[nH]c1=O` [Carmofur], for which, in experiment [1], the “EC50, p53 activation, cherry pick confirmation” value was “inactive” and the “Efficacy, p53 activation, cherry pick confirmation” value was “inactive”. In experiment [2] (setting [5]), the EC50 was found to be 17.8 µM. Moreover, the EC50 in experiment [2] (setting [6]) is 2.97 µM. Further, in experiment [2] (setting [7]), the Emax stood at 121%. Also, the EC50 in experiment [3] (setting [8]) came out at 2.11 µM. In addition, in experiment [4], the “EC50, p53 activation, cherry pick confirmation” value was “inactive”; the “EC50, p53 activation, primary screening” value was “inactive”; the “Efficacy, p53 activation, cherry pick confirmation” value is “inactive”; the “Efficacy, p53 activation, primary screening” value was “inactive”. Besides, in the experiment on p53RE-bla HCT-116 cells, the “EC50, viability, cherry pick confirmation” value is “inactive”; the “EC50, viability, primary screening” value is “inactive”; the “Efficacy, viability, cherry pick confirmation” value was “inactive”; the “Efficacy, viability, primary screening” value was “inactive”.
As for `O=C(O)CCCc1ccc(N(CCCl)CCCl)cc1` [Chlorambucil], the “p53 activation EC50” value in experiment [1] and in experiment [4] was “inactive” throughout. In addition, the p53 activation efficacy in experiment [2] is 39.7467; in experiment [4], “inactive”. Further, the EC50 came out at 25.7 µM in experiment [2] (Homo sapiens, HCT-116, read-out: p53 activation EC50); 37.3 µM in experiment [2] (read-out: p53 activation EC50); 22.6 µM in experiment [3] (HCT-116, read-out: p53 activation EC50). In addition, the Emax stood at 31.3% in experiment [2] (Homo sapiens, HCT-116, read-out: p53 activation efficacy) and 25.2% in experiment [3] (HCT-116, read-out: p53 activation efficacy). The “Viability EC50” value with p53RE-bla HCT-116 cells is “inactive”. For the same compound, in the experiment with p53RE-bla HCT-116 cells, the Viability efficacy entry was “inactive”.
Regarding `Nc1ccn([C@@H]2O[C@H](CO)[C@@H](O)[C@@H]2O)c(=O)n1` [Cytarabine], the EC50 in experiment [2] (setting [5]) came out at 0.913 µM. Besides, in experiment [2] (setting [7]), the Emax was 96.4%. In addition, in experiment [2] (Homo sapiens, HCT-116, read-out: Efficacy, p53 activation, primary screening), the Emax stood at 83.8%. Also, the EC50 in experiment [3] (HCT-116, read-out: EC50, p53 activation, cherry pick confirmation) stood at 0.903 µM. Moreover, the Emax in experiment [3] (HCT-116, read-out: Efficacy, p53 activation, cherry pick confirmation) came to 33.4%. Also, the Emax in experiment [3] (HCT-116, read-out: Efficacy, p53 activation, primary screening) was 31.7%. For the same compound, in experiment [4], the “EC50, p53 activation, cherry pick confirmation” value was “inactive”; the “EC50, p53 activation, primary screening” value is “inactive”; the “Efficacy, p53 activation, cherry pick confirmation” value was “inactive”; the “Efficacy, p53 activation, primary screening” value was “inactive”. In the experiment with p53RE-bla HCT-116 cells, the “EC50, viability, cherry pick confirmation” value was “inactive”; the “EC50, viability, primary screening” value was “inactive”; the “Efficacy, viability, cherry pick confirmation” value is “inactive”; the “Efficacy, viability, primary screening” value was “inactive”.
For `CNC(=O)Oc1cc(C)cc(C(C)C)c1` [Promecarb], in experiment [2], the “p53 activation EC50, cherry pick confirmation” value was “inactive”; the “p53 activation EC50, primary screening” value was “inactive”; the “p53 activation efficacy, cherry pick confirmation” value is “inactive”; the “p53 activation efficacy, primary screening” value is “inactive”. The EC50 in experiment [3] (setting [9]) worked out at 20 µM. The Emax in experiment [3] (setting [10]) amounted to 40.2%. For the same compound, in experiment [4], the “p53 activation EC50, cherry pick confirmation” value was “inactive” and the “p53 activation efficacy, cherry pick confirmation” value was “inactive”. In addition, in the experiment on p53RE-bla HCT-116 cells, the “Viability EC50, cherry pick confirmation” value is “inactive”; the “Viability EC50, primary screening” value was “inactive”; the “Viability efficacy, cherry pick confirmation” value is “inactive”; the “Viability efficacy, primary screening” value was “inactive”.
For the compound `CCN(C)C(=O)Oc1cccc([C@H](C)N(C)C)c1` [Rivastigmine tartrate], in experiment [2], the “p53 activation EC50, cherry pick confirmation” value is “inactive”; the “p53 activation EC50, primary screening” value was “inactive”; the “p53 activation efficacy, cherry pick confirmation” value is “inactive”; the “p53 activation efficacy, primary screening” value is “inactive”. Also, the EC50 in experiment [3] (setting [9]) came out at 8.41 µM. Further, the Emax in experiment [3] (setting [10]) was 32.8%. In experiment [4], the “p53 activation EC50, cherry pick confirmation” value is “inactive” and the “p53 activation efficacy, cherry pick confirmation” value was “inactive”. In addition, in the experiment with p53RE-bla HCT-116 cells, the “Viability EC50, cherry pick confirmation” value was “inactive”; the “Viability EC50, primary screening” value is “inactive”; the “Viability efficacy, cherry pick confirmation” value is “inactive”; the “Viability efficacy, primary screening” value is “inactive”.
In the case of `COP(=O)(OC)O/C(=C\Cl)c1cc(Cl)c(Cl)cc1Cl` [Z-Tetrachlorvinphos], in experiment [2], the “p53 activation EC50, cherry pick confirmation” value was “inactive”; the “p53 activation EC50, primary screening” value was “inactive”; the “p53 activation efficacy, cherry pick confirmation” value was “inactive”; the “p53 activation efficacy, primary screening” value was “inactive”. The EC50 in experiment [3] (setting [9]) worked out at 31.6 µM. Further, in experiment [3] (setting [10]), the Emax is 115%. In experiment [4], the “p53 activation EC50, cherry pick confirmation” value is “inactive” and the “p53 activation efficacy, cherry pick confirmation” value is “inactive”. Also, in the experiment on p53RE-bla HCT-116 cells, the “Viability EC50, cherry pick confirmation” value was “inactive”; the “Viability EC50, primary screening” value was “inactive”; the “Viability efficacy, cherry pick confirmation” value is “inactive”; the “Viability efficacy, primary screening” value is “inactive”.
On to Tricyclodecanedimethanol diacrylate, for which the “p53 activation EC50, cherry pick confirmation” value in experiment [1] and in experiment [4] was “inactive” each time. In addition, the “p53 activation EC50, primary screening” value in experiment [1] and in experiment [4] was “inactive” each time. Also, the “p53 activation efficacy, cherry pick confirmation” value in experiment [1] is “inactive”; in experiment [2], 41.6463; in experiment [4] it was “inactive”. For the same compound, the figures for the “p53 activation efficacy, primary screening” value in experiment [1], in experiment [2] and in experiment [4] were “inactive”, 37.7867 and “inactive”, respectively. For the same compound, the EC50 in experiment [2] (read-out: p53 activation EC50, cherry pick confirmation) was 30.6 µM; in experiment [2] (read-out: p53 activation EC50, primary screening) it was 44.5 µM; in the experiment with p53RE-bla HCT-116 cells (read-out: Viability EC50, cherry pick confirmation), 49.4 µM; with p53RE-bla HCT-116 cells (read-out: Viability EC50, primary screening), 49.5 µM. Moreover, the “Viability EC50, cherry pick confirmation” value in the experiment with p53RE-bla HCT-116 cells is “inactive”. For the same compound, the “Viability EC50, primary screening” value with p53RE-bla HCT-116 cells is “inactive”.
